Data set [1] addresses T1, human Na+/H+ exchanger (subtype 3; NHE-3) (Homo sapiens, UniProt P48764).
T1 construct: expressed in transfected cells; host or cells: LAP1 cells (NHE-deficient), stably transfected with pMAMneo plasmid
T1 sequence (P48764 26-834): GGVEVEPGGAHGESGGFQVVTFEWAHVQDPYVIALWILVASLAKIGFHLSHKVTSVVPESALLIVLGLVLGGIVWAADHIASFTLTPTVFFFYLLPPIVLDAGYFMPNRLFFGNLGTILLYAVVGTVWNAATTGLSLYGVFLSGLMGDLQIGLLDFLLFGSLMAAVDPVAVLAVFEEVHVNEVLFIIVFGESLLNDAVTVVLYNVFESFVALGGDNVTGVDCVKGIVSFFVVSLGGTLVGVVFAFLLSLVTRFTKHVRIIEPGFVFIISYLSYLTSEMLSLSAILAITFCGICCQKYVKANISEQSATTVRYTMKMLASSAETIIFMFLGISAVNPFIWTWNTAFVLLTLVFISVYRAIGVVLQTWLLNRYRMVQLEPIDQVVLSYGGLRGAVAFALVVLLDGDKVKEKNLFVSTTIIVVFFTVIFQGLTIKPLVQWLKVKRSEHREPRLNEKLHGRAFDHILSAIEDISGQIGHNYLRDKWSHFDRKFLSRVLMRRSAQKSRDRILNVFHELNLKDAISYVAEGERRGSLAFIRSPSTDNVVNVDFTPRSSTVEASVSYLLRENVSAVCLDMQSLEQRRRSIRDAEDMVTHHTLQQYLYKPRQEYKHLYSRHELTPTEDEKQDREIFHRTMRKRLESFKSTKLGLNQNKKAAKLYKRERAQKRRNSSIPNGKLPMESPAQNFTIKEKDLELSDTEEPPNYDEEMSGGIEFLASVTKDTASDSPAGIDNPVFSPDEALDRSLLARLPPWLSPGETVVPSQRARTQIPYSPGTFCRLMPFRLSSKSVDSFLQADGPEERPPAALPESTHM
Kind of data set: Inhibition of the NHE antiport subtype 3: intracellular pH recovery after acid load (BCECF) in stably transfected LAP1 cells. As to conditions: human NHE-3, pH recovery in % of maximum recovery, read-out: Residual activity at 30 μM. In kind it is cell-based. How it is done: The absorption of water from the gall bladder is inhibited by inhibition of the apical NHE antiport of the subtype 3 of the gall bladder epithelium, which results in a dilute bile fluid. This dilute bile fluid prevents gallstone formation and, if gallstones are already present, brings about their dissolution. The inhibition of the NHE antiport of the subtype 3 by the compounds of the formula I according to the invention was determined by means of the following test.
Most of the molecular bilology techniques follow protocols from the works “Current Protocols in Molecular Biology (eds. Ausubel, F. M., Brent, R., Kingston, R. E., Moore, D. D., Seidman, J. G., Smith, J. A. and Struhl, K.; John Wiley & Sons)” and “Molecular Cloning: A Laboratory Manual (Sambrock, J., Fritsch, E. F. und Maniatis, T.; Cold Spring Harbor Laboratory Press (1989))”. […] In this test, the increase in the intracellular pH (pHi) after an acidification was determined which commenced with functional NHE even under bicarbonate-free conditions. For this, the pHi was determined using the pH-sensitive fluorescent dye BCECF (Calbiochem, the precursor BCECF-AM is employed). […] The BCECF fluorescence was determined in a “ratio fluorescence spectrometer” (Photon Technology International, South Brunswick, N.J., USA) at excitation wavelengths of 505 and 440 nm and an emission wavelength of 535 nm and converted into the pHi by means of calibration curves. […]

Each structure is given as a SMILES string.

Take `C[C@H](CCC(=O)O)[C@H]1CC[C@H]2[C@@H]3[C@H](O)C[C@@H]4C[C@@H](OCCNC(=O)c5cccc(-c6ccc(C(=O)N=C(N)N)cc6)c5)CC[C@]4(C)[C@H]3C[C@H](O)[C@]12C` (stereo in doubt) [Example 3, 4-(3-{2-[(4′-Guanidinocarbonylbiphenyl-3-carbonyl)amino]ethoxy}-7,12-dihydroxy-10,13-dimethylhexadecahydrocyclopenta[a]phenanthren-17-yl)pentanoic acid]: the remaining activity at 30 µM in data set [1] came out at 65%. As for `C/C(=C\C(=O)N=C(N)N)c1cc(F)c(Oc2ccc(CC(=O)N[C@H]3CC[C@@]4(C)[C@@H](C3)C[C@@H](O)[C@@H]3[C@@H]4C[C@H](O)[C@]4(C)[C@@H]([C@H](C)CCC(=O)O)CC[C@@H]34)cc2)c(F)c1` (stereo in doubt) [Example 2, 4-[3-(2-{4-[2,6-Difluoro-4-(3-guanidino-1-methyl-3-oxopropenyl)phenoxy]phenyl}acetylamino)-7,12-dihydroxy-10,13-dimethylhexadecahydrocyclopenta[a]phenanthren-17-yl]pentanoic acid], the melting point was 190 °C (dec.). Also, the remaining activity at 30 µM in data set [1] is 10%. Turning to `C/C(=C\c1cc(F)c(Oc2ccc(CC(=O)NCCO[C@H]3CC[C@@]4(C)[C@@H](C3)C[C@@H](O)[C@@H]3[C@@H]4C[C@H](O)[C@]4(C)[C@@H]([C@H](C)CCC(=O)O)CC[C@@H]34)cc2)c(F)c1)C(=O)N=C(N)N` (stereo in doubt) [Example 1, 4-{3-[2-(2-{4-[2,6-Difluoro-4-(3-guanidino-2-methyl-3-oxopropenyl)phenoxy]phenyl}acetylamino)ethoxy]-7,12-dihydroxy-10,13-dimethylhexadecahydro-cyclopenta[a]phenanthren-17-yl}pentanoic acid], the remaining activity at 30 µM in data set [1] is 17%.

In general, melting point refers to the temperature of the solid-liquid transition.
